# Reference: patent US20220273660A1, “MEK INHIBITOR FOR TREATMENT OF STROKE” (EDVINCE AB, priority 2019, published 2022)
# Entries after “also recorded” stand apart in the source; their conditions may differ.
# Legend:
# [1] = test system: rat subarachnoid haemorrhage model; test: Rotating pole test after SAH, intrathecal treatment; assay type: in vivo; conditions: SAH + i.t. treatment
# Protocol: The intrathecal (i.t.) treatment volumes were estimated for a cerebrospinal fluid (CSF) volume of approximately 90 μL (21) and the total dose was administered as three treatments (4 hours, 10 hours and 24 hours) through the PinPort in the ICP catheter placed in the cisterna magna during the surgical procedure. The first and third injections were given under fixation of the rat. Since the treatment 10 hours post-surgery was administered by a single researcher, the rats were briefly anaesthetised with isoflurane 3.5-4% (maintained at 1.75-2%) in atmospheric air/O2 (70%/30%) using a facemask, to prevent sudden movements of the rat. […]
# Gross sensorimotor function was evaluated using a rotating pole test, including a baseline evaluation on the day before induction of SAH. Briefly, movement across a 10-rpm rotating pole (45 mm diameter, 150 cm length) was evaluated with a cage at the end that contain the rat's own bedding material (“smells like home”). Rat performance was scored according to the following definitions: Low, the animal is unable to cross the pole without falling off; High, the animal can traverse the entire pole without falling off. […] Pre-SAH and on day 1 and 2 after surgery, each animal was scored twice for left and right rotation respectively, i.e. 4 counts per animal. […]
# Solubility (statement) = assay type: physicochemical
# rat basilar arteries = test: 48 h organ culture of basilar artery, endothelium function / vasodilation (carbachol, SNP, CGRP); assay type: cell-based; conditions: 1 μM inhibitor
# Protocol: Rats were sedated with O2/CO2 (30/70%) and sacrificed by decapitation. […] The basilar artery (BA) was carefully dissected from the brain in a physiological buffer solution followed by either OC (naïve animals) or directly mounted in a wire myograph (arteries from rats which has undergone surgical procedures). Segments were incubated for 48 hours at 37° C. in humidified 5% CO2/O2 in DMEM supplemented with streptomycin and penicillin with inhibitors or vehicle (DMSO). Culture media was changed after 24 hours.
# For contractility measurements, both incubated BAs (ex vivo) and BAs after surgical procedure (in vivo) were cut into segments and mounted on a pair of metal wires (40 μm) in a myograph bath. The arteries from OC were mounted the same way after 48 hours in media. One wire was attached to a micro-meter screw which allows for fine adjustments of the distance between the wires, controlling the vascular tone.
# The arterial segments were exposed two or three times with 60 mM K^+, by exchanging the buffer with a 60 mM K^+ buffer solution. To maintain equal osmolarity, a proportional amount of Na^+ had been removed from the buffer. An absolute cut-off was set at 2.0 mN K^+max for inclusion of arterial segments from rats that underwent the surgical procedure. Endothelium function was evaluated with the addition of 5-HT (3.10^−7 M) followed by carbachol (10^−5 M). For arteries from the OC the protocol was as followed: first a cumulative concentration-response curve to sarafotoxin 6C (S6c, 10^−14-10^−7 M), followed by a concentration-response curve to endothelin-1 (ET-1, 10^−14-10^−7 M). At peak ET-1 (10^−7 M), the buffer was changed to a Ca^2+-free buffer containing 10^−7 M ET-1 and nimodipine (L-type of voltage dependent Ca^2+ channel entry blocker, 10^−7 M). […] When vasodilation was investigated arteries was precontracted with U46619 (1.10^−7-3.10^−7 M) or K^+ (41 mM) and cumulative concentration-response curves was performed by adding calcitonin gene-related peptide (CGRP, 10^−12-10^−7 M), carbachol (10^−10-10^−5 M) or SNP (10^−11-10^−4 M).
structure (smiles),measurement,setting,value
CC(=O)Nc1cccc(-n2c(=O)n(C3CC3)c(=O)c3c(Nc4ccc(I)cc4F)n(C)c(=O)c(C)c32)c1 [trametinib],neurological assessment scores (rotating pole test),[1],Improved neurological assessment scores
same,rotating pole Score48 h (% high score count/total score count),"[1]; 48 hours post-SAH, 10 rpm",96%
same,solubility,Solubility (statement),excellent solubility
same,Emax following NO donor sodium nitroprusside (SNP),rat basilar arteries; 48 h OC,significant differences in the Emax
same,response to CGRP,rat basilar arteries; 48 h OC,No differences
same,vasodilation in response to carbachol (10^-10-10^-5 M),"rat basilar arteries; 48 h OC, precontracted with U46619 or K+",improved vasodilation
same,endothelium function (10-5 M carbachol on arteries precontracted with 5-HT) vs DMSO,rat basilar arteries; 48 h organ culture,significant better endothelium function; also recorded: significant increase
